From ChEMBL document CHEMBL4715829, “Heterodimeric Rifampicin-Tobramycin conjugates break intrinsic resistance of Pseudomonas aeruginosa to doxycycline and chloramphenicol in vitro and in a Galleria mellonella in vivo model” (Eur J Med Chem, 2019)

Columns and labels:
[1] = test system: Pseudomonas aeruginosa; experiment: Antibacterial activity against Pseudomonas aeruginosa 91433 assessed as potentiation of chloramphenicol-induced antibacterial activity by measuring chloramphenicol MIC at 7.6 uM incubated for 18 hrs in presence of chloramphenicol by broth microdilution assay (reference value: 8 ug/ml); format: functional
[2] = Toxicity in Galleria mellonella larvae assessed as larval survival at 200 mg/kg measured after 96 hrs; format: organism-based; conditions: in vivo
[3] = test system: Pseudomonas aeruginosa; experiment: Antibacterial activity against Pseudomonas aeruginosa 259-96918 assessed as fractional inhibitory concentration incubated for 18 hrs in presence of rifampicin by broth microdilution assay; format: functional

Question: For `CO[C@H]1/C=C/O[C@@]2(C)Oc3c(C)c(O)c4c(O)c(c(/C=N/N5CCN(Cc6cn(CCCCCCCCCCCCO[C@@H]7[C@@H](O[C@H]8O[C@H](CO)[C@@H](O)[C@H](N)[C@H]8O)[C@H](N)C[C@H](N)[C@H]7O[C@H]7O[C@H](CN)[C@@H](O)C[C@H]7N)nn6)CC5)c(O)c4c3C2=O)NC(=O)/C(C)=C\C=C\[C@H](C)[C@H](O)[C@@H](C)[C@@H](O)[C@@H](C)[C@H](OC(C)=O)[C@@H]1C.O=C(O)C(F)(F)F.O=C(O)C(F)(F)F.O=C(O)C(F)(F)F.O=C(O)C(F)(F)F.O=C(O)C(F)(F)F`, which MIC [1] is on record?
Answer: 1 µg/mL

Question: With `CO[C@H]1/C=C/O[C@@]2(C)Oc3c(C)c(O)c4c(O)c(c(/C=N/N5CCN(Cc6cn(CCCCCCO[C@@H]7[C@@H](O[C@H]8O[C@H](CO)[C@@H](O)[C@H](N)[C@H]8O)[C@H](N)C[C@H](N)[C@H]7O[C@H]7O[C@H](CN)[C@@H](O)C[C@H]7N)nn6)CC5)c(O)c4c3C2=O)NC(=O)/C(C)=C\C=C\[C@H](C)[C@H](O)[C@@H](C)[C@@H](O)[C@@H](C)[C@H](OC(C)=O)[C@@H]1C.Cl.Cl.Cl.Cl.Cl` as the compound, how does the survival at 96 h [2] read?
Answer: 97%

Question: And the FIC [3]?
Answer: <0.125
